Measured values reported in US20020137929A1, “1 - (3-heterocyclylphenyl) isothiourea, -isourea, -guanidine and -amidine herbicidal agents” (Intellectual Property Department, BASF Aktiengesellschaft, priority 1998, published 2002).

Experiments:
ABUTH (Velvetleaf) = assay: Postemergence herbicidal evaluation; format: in vivo, Abutilon theophrasti
Method in brief: (§1)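 Two-week seedlings sprayed postemergence at 40 psi; formulation: 1:1 acetone/water, 0.5% TWEEN 20; application ≈0.0156–0.500 kg/ha. Greenhouse grow-out, then 0–9 visual scoring at 4–5 weeks.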

GALAP (Galium) = assay: Postemergence herbicidal evaluation; format: in vivo, Galium aparine
Method in brief: as §1

ECHCG (Barnyardgrass) = assay: Postemergence herbicidal evaluation; format: in vivo, Echinochloa crus-galli
Method in brief: as §1

SETVI (Foxtail, Green) = assay: Postemergence herbicidal evaluation; format: in vivo, Setaria viridis
Method in brief: as §1

ORYSAT (Rice, Tebonnet) = assay: Postemergence herbicidal evaluation; format: in vivo, Oryza sativa, (L.) Tebonnet
Method in brief: as §1

[1] = system: IPOHE (Morningglory, Ivyleaf); assay: Preemergence herbicidal evaluation; format: in vivo, Ipomoea hederacea; details: rated 4-5 weeks after treatment
Method in brief: (§2)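 Each species is sown separately in potting soil over roughly an inch of soil before any emergence. The soil surface then receives an aqueous acetone spray delivering about 0.0156 to 0.500 kg/ha of compound. After four to five weeks, injury is scored from 0 to 9 relative to a control.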

[2] = system: TRZAWR (Wheat, Winter, cv Riband); assay: Preemergence herbicidal evaluation; format: in vivo, Triticum aestivum; details: rated 4-5 weeks after treatment
Method in brief: as §2

ZEAMX (Corn, Field) = assay: Preemergence herbicidal evaluation; format: in vivo, Zea mays; details: rated 4-5 weeks after treatment
Method in brief: as §2

[3] = system: ECHORC (Watergrass (Calif.)); assay: Preemergence weed control under flooded paddy conditions; format: in vivo, Echinochloa oryzoides; details: rated 3-4 weeks after treatment
Method in brief: (§3)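 Visual injury scored 0-9 against control three to four weeks post-treatment, greenhouse-grown. Application: acetone/water (50/50) solutions dosed directly into flood water (1.5-3 cm over silt loam, planted top 0.5 cm), roughly 0.0313 to 0.500 kg/ha active ingredient.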

CYPIR (Rice Flatsedge) [4] = assay: as above; format: in vivo, Cyperus iria; details: rated 3-4 weeks after treatment
Method in brief: as §3

MOOVA (Monochoria) = assay: as above; format: in vivo, Monochoria vaginalis; details: rated 3-4 weeks after treatment
Method in brief: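 Silt loam, seeds in top 0.5 cm; flood held 1.5-3 cm; test cpd as acetone/water 50/50 into flood water, ~0.0313-0.500 kg/ha a.i.; greenhouse 3-4 wk; visual 0-9 score vs control.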

CYPIR (Rice Flatsedge) [5] = assay: Postemergence weed control under flooded paddy conditions; format: in vivo, Cyperus iria; details: postemergence weeds, 3-4 weeks after treatment
Method in brief: (§4)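 Injury ratings (0–9 scale covering stand, vigor, malformation, size, chlorosis and overall appearance versus control) were made three to four weeks after treatment. Test material, about 0.0313 to 0.500 kg/ha a.i. in 50/50 v/v aqueous/acetone, was added to flood water 1.5 to 3 cm deep over 3 to 5 cm weeds and 1.5 to 2.5 leaf rice.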

CYPSE (Flatsedge) = assay: as above; format: in vivo, Cyperus serotinus; details: postemergence weeds, 3-4 weeks after treatment
Method in brief: as §4

[6] = system: SAGPY (Arrowhead (Pygmaea)); assay: as above; format: in vivo, Sagittaria pygmaea; details: postemergence weeds, 3-4 weeks after treatment
Method in brief: as §4

C[C@@H](C(=O)O)N1C(=O)CS/C1=N/c1cc(-n2c(=O)cc(C(F)(F)F)n(C)c2=O)c(F)cc1Cl [Compound 51, 2-{{2-Chloro-5-[3,6-dihydro-3-methyl-2,6-dioxo-4-(trifluoromethyl)-1(2H)-pyrimidinyl]-4-fluoro-phenyl}imino}-α-methyl-4-oxo-3-thiazolidineacetic acid, L-]
Postemergence herbicidal rating ABUTH (ABUTH (Velvetleaf); Rate 0.0158 kg/ha): 9.0 | Postemergence herbicidal rating ABUTH (ABUTH (Velvetleaf); Rate 0.0315 kg/ha): 9.0 | Postemergence herbicidal rating ABUTH (ABUTH (Velvetleaf); Rate 0.0630 kg/ha): 9.0 | Postemergence herbicidal rating GALAP (GALAP (Galium); Rate 0.0158 kg/ha): 4.0 | Postemergence herbicidal rating GALAP (GALAP (Galium); Rate 0.0315 kg/ha): 9.0 | Postemergence herbicidal rating GALAP (GALAP (Galium); Rate 0.0630 kg/ha): 9.0 | Postemergence herbicidal rating ECHCG (ECHCG (Barnyardgrass); Rate 0.0158 kg/ha): 4.0 | Postemergence herbicidal rating ECHCG (ECHCG (Barnyardgrass); Rate 0.0315 kg/ha): 5.0 | Postemergence herbicidal rating ECHCG (ECHCG (Barnyardgrass); Rate 0.0630 kg/ha): 9.0 | Postemergence herbicidal rating SETVI (SETVI (Foxtail, Green); Rate 0.0158 kg/ha): 7.0 | Postemergence herbicidal rating SETVI (SETVI (Foxtail, Green); Rate 0.0315 kg/ha): 9.0 | Postemergence herbicidal rating SETVI (SETVI (Foxtail, Green); Rate 0.0630 kg/ha): 9.0 | Postemergence herbicidal rating ORYSAT (ORYSAT (Rice, Tebonnet); Rate 0.0158 kg/ha): 2.0 | Postemergence herbicidal rating ORYSAT (ORYSAT (Rice, Tebonnet); Rate 0.0315 kg/ha): 3.5 | Postemergence herbicidal rating ORYSAT (ORYSAT (Rice, Tebonnet); Rate 0.0630 kg/ha): 4.0 | Preemergence herbicidal rating IPOHE ([1]; rate 0.0156 kg/ha): 2.0 | Preemergence herbicidal rating IPOHE ([1]; rate 0.0313 kg/ha): 9.0 | Preemergence herbicidal rating IPOHE ([1]; rate 0.0625 kg/ha): 9.0 | Preemergence herbicidal rating IPOHE ([1]; rate 0.1250 kg/ha): 9.0 | Preemergence herbicidal rating IPOHE ([1]; rate 0.2500 kg/ha): 9.0 | Preemergence herbicidal rating TRZAWR ([2]; rate 0.0156 kg/ha): 0.0 | Preemergence herbicidal rating TRZAWR ([2]; rate 0.0313 kg/ha): 0.0 | Preemergence herbicidal rating TRZAWR ([2]; rate 0.0625 kg/ha): 0.0 | Preemergence herbicidal rating TRZAWR ([2]; rate 0.1250 kg/ha): 2.0 | Preemergence herbicidal rating TRZAWR ([2]; rate 0.2500 kg/ha): 6.0 | Preemergence herbicidal rating ZEAMX (ZEAMX (Corn, Field); rate 0.0156 kg/ha): 1.0 | Preemergence herbicidal rating ZEAMX (ZEAMX (Corn, Field); rate 0.0313 kg/ha): 1.0 | Preemergence herbicidal rating ZEAMX (ZEAMX (Corn, Field); rate 0.0625 kg/ha): 1.0 | Preemergence herbicidal rating ZEAMX (ZEAMX (Corn, Field); rate 0.1250 kg/ha): 2.0 | Preemergence herbicidal rating ZEAMX (ZEAMX (Corn, Field); rate 0.2500 kg/ha): 6.0 | Herbicidal rating ECHORC ([3]; 0.0625 kg/ha): 0.0 | Herbicidal rating ECHORC ([3]; 0.1250 kg/ha): 0.0 | Herbicidal rating ECHORC ([3]; 0.2500 kg/ha): 0.0 | Herbicidal rating CYPIR (CYPIR (Rice Flatsedge) [4]; 0.0625 kg/ha): 2.0 | Herbicidal rating CYPIR (CYPIR (Rice Flatsedge) [4]; 0.1250 kg/ha): 3.0 | Herbicidal rating CYPIR (CYPIR (Rice Flatsedge) [4]; 0.2500 kg/ha): 6.0 | Herbicidal rating MOOVA (MOOVA (Monochoria); 0.0625 kg/ha): 3.0 | Herbicidal rating MOOVA (MOOVA (Monochoria); 0.1250 kg/ha): 4.0 | Herbicidal rating MOOVA (MOOVA (Monochoria); 0.2500 kg/ha): 4.0 | Herbicidal rating CYPIR (CYPIR (Rice Flatsedge) [5]; rate 0.0625 kg/ha): 2.0 | Herbicidal rating CYPIR (CYPIR (Rice Flatsedge) [5]; rate 0.1250 kg/ha): 3.0 | Herbicidal rating CYPIR (CYPIR (Rice Flatsedge) [5]; rate 0.2500 kg/ha): 6.0 | Herbicidal rating CYPSE (CYPSE (Flatsedge); rate 0.0625 kg/ha): 0.0 | Herbicidal rating CYPSE (CYPSE (Flatsedge); rate 0.1250 kg/ha): 0.0 | Herbicidal rating CYPSE (CYPSE (Flatsedge); rate 0.2500 kg/ha): 0.0 | Herbicidal rating SAGPY ([6]; rate 0.0625 kg/ha): 0.0 | Herbicidal rating SAGPY ([6]; rate 0.1250 kg/ha): 0.0 | Herbicidal rating SAGPY ([6]; rate 0.2500 kg/ha): 0.0
